From ChEMBL document CHEMBL3997846, “Synthesis and activity of nucleoside-based antiprotozoan compounds” (Bioorg Med Chem, 2017)

How the values were obtained:
[1] = system: Trypanosoma brucei rhodesiense; assay: Antitrypanosomal activity against bloodstream forms of Trypanosoma brucei rhodesiense STIB900 trypomastigotes after 72 hrs by alamar blue assay; assay type: functional; settings: STIB900, 72 h
L6 = assay: Cytotoxicity against rat L6 cells assessed as growth inhibition after 72 hrs by alamar blue assay; assay type: cell-based; settings: L6, 72 h
[2] = Selectivity index, ratio of IC50 for rat L6 cells to IC50 for bloodstream forms of Trypanosoma brucei rhodesiense STIB900 trypomastigotes; assay type: toxicity; settings: read-out: Ratio IC50
Trypanosoma cruzi = assay: Antitrypanosomal activity against Trypanosoma cruzi Tulahuen strain C2C4 amastigote forms harboring LacZ infected in rat L6 cells after 96 hrs by CPRG/Nonidet reagent based photometric method; assay type: functional, cell-based; settings: Tulahuen strain C2C4, L6, 96 h
[3] = Selectivity index, ratio of IC50 for rat L6 cells to IC50 for Trypanosoma cruzi Tulahuen strain C2C4 amastigote forms harboring LacZ infected in rat L6 cells; assay type: toxicity, cell-based; settings: read-out: Ratio IC50
Leishmania donovani = assay: Antileishmanial activity against Leishmania donovani MHOM/SD/62/ISCL2D axenic amastigotes after 72 hrs by alamar blue assay; assay type: functional
[4] = Selectivity index, ratio of IC50 for rat L6 cells to IC50 for Leishmania donovani MHOM/SD/62/ISCL2D axenic amastigotes; assay type: toxicity; settings: read-out: Ratio IC50
Plasmodium falciparum = assay: Antiplasmodial activity against chloroquine resistant Plasmodium falciparum K1 erythrocytic stage assessed as reduction in [3H]hypoxanthine incorporation after 48 hrs by liquid scintillation counting assay; assay type: functional
[5] = Selectivity index, ratio of IC50 for rat L6 cells to IC50 for chloroquine resistant Plasmodium falciparum K1 erythrocytic stage; assay type: toxicity; settings: read-out: Ratio IC50

| Structure (SMILES) | IC50 [1] | IC50 (L6) | selectivity ratio [2] | IC50 (Trypanosoma cruzi) | selectivity ratio [3] | IC50 (Leishmania donovani) | selectivity ratio [4] | IC50 (Plasmodium falciparum) | selectivity ratio [5] |
| --- | --- | --- | --- | --- | --- | --- | --- | --- | --- |
| CC(=O)O[C@@H]1[C@H](OC(C)=O)[C@@H](CI)O[C@H]1n1cnc2c(N)nc(F)nc21 | 15 µM | 6.3 µM | 0.4 | 14 µM | 0.4 | 9.2 µM | 0.7 | 1.1 µM | 6 |
| Nc1nc(Cl)c2ccn([C@@H]3O[C@H](CO)[C@@H](O)[C@H]3O)c2n1 | 0.13 µM | 163 µM | 1250 | 3.4 µM | 48 | 0.06 µM | 2720 | 68 µM | 2 |
| CNc1nc(N)nc2c1ncn2[C@@H]1O[C@H](C)[C@@H](O)[C@H]1O | 127 µM | 211 µM | 2 | 15 µM | 14 | 326 µM | 0.6 | 19 µM | 11 |
| COc1nc(I)nc2c1ncn2[C@@H]1O[C@H](C)[C@@H](O)[C@H]1O | 108 µM | 158 µM | 2 | 113 µM | 1 | 126 µM | 1 | 65 µM | 2 |
| CC(=O)O[C@@H]1[C@H](OC(C)=O)[C@@H](CN=[N+]=[N-])O[C@H]1n1cnc2c(N)nc(F)nc21 | 23 µM | 18 µM | 0.8 | 39 µM | 0.5 | 33 µM | 0.5 | 1.5 µM | 12 |
| Nc1nc([Se][Se]c2nc(N)nc3c2ccn3[C@@H]2O[C@H](CO)[C@@H](O)[C@H]2O)c2ccn([C@@H]3O[C@H](CO)[C@@H](O)[C@H]3O)c2n1 | 9.6 µM | 24 µM | 3 | 21 µM | 1 | > 145 µM | < 0.2 | 20.5 µM | 1 |
| CC(=O)NC[C@H]1O[C@@H](n2cnc3c(N)nc(Cl)nc32)[C@H](O)[C@@H]1O | 79 µM | 189 µM | 2 | 174 µM | 1 | > 280 µM | < 0.7 | 88 µM | 2 |
| CC(=O)O[C@@H]1[C@H](OC(C)=O)[C@@H](CI)O[C@H]1n1cnc2c(N)nc(Cl)nc21 | 12 µM | 86 µM | 7 | 10 µM | 9 | 15 µM | 6 | 3.9 µM | 22 |
| [N-]=[N+]=NC[C@H]1O[C@@H](n2cnc3c(N)nc(F)nc32)[C@H](O)[C@@H]1O | 22 µM | 3.1 µM | 0.1 | 13 µM | 0.2 | 1 µM | 3 | 0.89 µM | 3 |
| CC(=O)O[C@@H]1[C@H](OC(C)=O)[C@@H](CN=[N+]=[N-])O[C@H]1n1cnc2c(N)nc(Cl)nc21 | 64 µM | 141 µM | 2 | 93 µM | 2 | 114 µM | 1 | 13 µM | 11 |
| CNc1nc(N)nc2c1ncn2[C@@H]1O[C@H](CSC)[C@@H](O)[C@H]1O | 290 µM | 165 µM | 0.6 | 22 µM | 8 | > 318 µM | 0.5 | 29 µM | 6 |
| [N-]=[N+]=NC[C@H]1O[C@@H](n2cnc3c(N)nc(Cl)nc32)[C@H](O)[C@@H]1O | 56 µM | 155 µM | 3 | 76 µM | 2 | 193 µM | 0.8 | 9.8 µM | 16 |
| CS(=O)(=O)C[C@H]1O[C@@H](n2cnc3c(N)nc(Cl)nc32)[C@H](O)[C@@H]1O | 126 µM | 156 µM | 1 | 156 µM | 1 | > 275 µM | < 0.6 | 25 µM | 6 |
| CC(=O)NC[C@H]1O[C@@H](n2cnc3c(N)nc(Cl)nc32)[C@H](OC(C)=O)[C@@H]1OC(C)=O | 113 µM | 190 µM | 2 | 125 µM | 2 | > 230 µM | < 0.8 | 102 µM | 2 |
| CNc1nc(NC)c2ncn([C@@H]3O[C@H](C)[C@@H](O)[C@H]3O)c2n1 | > 340 µM | 187 µM | < 0.6 | 109 µM | 2 | > 340 µM | < 0.6 | > 170 µM | < 1 |
| Nc1nc2c(ccn2[C@@H]2O[C@H](CO)[C@@H](O)[C@H]2O)c(=S)[nH]1 | 61 µM | 185 µM | 3 | 71 µM | 3 | > 335 µM | < 0.6 | > 168 µM | < 1 |
| CC(=O)O[C@@H]1[C@H](OC(C)=O)[C@@H](CN2C(=O)c3ccccc3C2=O)O[C@H]1n1cnc2c(N)nc(F)nc21 | 160 µM | 129 µM | 0.8 | 103 µM | 1 | > 200 µM | < 0.6 | 45 µM | 3 |
| CSC[C@H]1O[C@@H](n2cnc3c(N)nc(F)nc32)[C@H](OC(C)=O)[C@@H]1OC(C)=O | 26 µM | 15 µM | 0.6 | 15 µM | 1 | 18 µM | 0.8 | 2.8 µM | 5 |
| CNc1nc(Cl)c2ncn([C@@H]3O[C@H](C)[C@@H](O)[C@H]3O)c2n1 | 230 µM | 175 µM | 0.8 | 35 µM | 5 | > 335 µM | < 0.5 | 150 µM | 1 |
| CC(=O)NC[C@H]1O[C@@H](n2cnc3c(N)nc(F)nc32)[C@H](O)[C@@H]1O | > 300 µM | 182 µM | < 0.6 | 178 µM | 1 | 117 µM | 2 | 19 µM | 10 |
| CC(=O)O[C@@H]1[C@H](OC(C)=O)[C@@H](CN2C(=O)c3ccccc3C2=O)O[C@H]1n1cnc2c(N)nc(Cl)nc21 | 161 µM | 144 µM | 0.9 | 101 µM | 1 | 139 µM | 1 | 23 µM | 6 |
| CC(=O)NC[C@H]1O[C@@H](n2cnc3c(N)nc(F)nc32)[C@H](OC(C)=O)[C@@H]1OC(C)=O | 115 µM | 138 µM | 1 | 106 µM | 1 | > 240 µM | < 0.6 | 37 µM | 4 |
